Entries after “also recorded” stand apart in the source; their conditions may differ.
Columns and labels:
[1] = system: male Swiss Webster mice, phenylquinone-induced writhing; assay: Phenylquinone (PQ) writhing assay, % inhibition (Swiss Webster mice); format: in vivo; conditions: for inhibition at 30 mg/kg / % Inhibition of Writhing Response: 30 mg/kg orally in 1% methyl cellulose, 1 hour before PQ 2 mg/kg ip; for inhibition at 30 mg/kg: read-out: % Inhibition of Writhing Response
Method: Test compounds were prepared as a suspension in 1% methyl cellulose and dosed orally at a dose of 30 mg/kg to male Swiss Webster mice weighing between 15 and 25 g with 10 mice per group. Test compounds was given 1 hour before the injection of phenylquinone. Phenylquinone (Sigma) was injected intraperitoneally at a dose of 2 mg/kg. After a 5 minute acclimation period, the number of writhes was counted for a 5 minute observation period for each mouse. The total number of writhes for each test compound was compared with a vehicle group. Results were expressed as % inhibition compared to the vehicle treated group means (Table VII).
In related experiment, a dose response relationship was established for the compound of Example 1 using the same experimental protocl as above. […] This is shown graphically in FIG. 2.

[2] = system: Chronic constriction injury (CCI) rats; assay: Bennett chronic constriction injury (CCI) mononeuropathy, cold allodynia assay; format: in vivo, Sparague Dawley rats
Method: The peripheral mononeuropathy was induced by loose ligation of the sciatic nerve in anaesthetized rats. Ten days later, the nociceptive threshold was evaluated. The test compound is administered orally 1 hour prior to pain measurement. For comparison, a predose threshold was determined and a control experiment using 1% methyl cellulose was run. […] Animals were again tested 1-2 hrs post-dose. Predose and postdose average scores are determined.
In a related experiment a dose-response relationship for the compound of Example 20 was determined using the same experimental protocol. […] Animals were again tested 1 hr post-dose.

[3] = system: Rats (Sprague-Dawley); assay: Rat hot-plate assay (55° C.) for general analgesia; format: in vivo
Method: The purpose of the experiment was to determine if the compound of Example 16 has significant general analgesic activity as opposed to the desired activity against neuropathic pain. Test compound, 1% methylcellulose as a vehicle and morphine sulfate as a positive standard were tested for analgesic activity using a rat hot-plate assay (55° C.) of Eddy and Leimbach (J. Pharmacol. Ep. Ther 107; 385-393 (1953)) to evaluate nociceptive responses.
Rats (Sprague-Dawley, 217-227 g.) were used with 10 animals per group. Two pre-dose trials to nociceptive responses were determined before administration of compounds. Sixty minutes prior to testing, rats were dosed with either test compound (100 mg/kg, p.), as a suspension in 1% methylcellulose, or 1% methylcellulose as a vehicle ([…], p.). thirty minutes prior to testing, a third group was dosed with morphine sulfate (4.0 mg/kg, 2.0 ml/kg, sc) to test for nociceptive responses using a hot plate. Latency to rear paw licking response or jump response (1) was recorded using an electronic timer. The cut-off time for either response was 30 seconds. Statistical significance was assessed for paired groups using a Turkey test and between non-paired groups using Kruskal-Wallis test. A probability value of <0.05 was identified as statistically significant.

[4] = system: ICR derived male mice, phenylquinone-induced writhing; assay: Phenylquinone (PQ) Writhing assay, number of writhes (MDS Panlabs, ICR mice); format: in vivo; conditions: for analgesia relative to vehicle control group (PQ writhing): 100, 30 and 10 mg/kg orally, P<0.01 for all 3 doses, Dunnett's test; for # Writhes (X + SEM): per os, 60 min before PQ 2 mg/kg ip, vehicle 20.8 ± 0.7, **P<0.01
Method: The compounds of Example 20 and Example 16 administered orally at doses of 10, 30 and 100 mg/kg. Vehicle of 2% Tween 80 in distilled water was used.
In this study, ICR derived male mice provided by animal breeding center of MDS Panlabs Taiwan, Ltd. were used. Space allocation for 10 animals was 45×23×15 cm. Mice were housed in APEC^R (Allentown Gaging, Allentown, N.J. 08501, U.S.A.) cages in a positive pressure isolation (NuAire^R, Mode: Nu-605, airflow velocity 50±5 ft/min, HEPA Filter) and maintained in a controlled temperature (22°-24° C.) and humidity (60%-80%) environment with 12 hour light dark cycles for at least one week in MDS Panlabs Taiwan laboratory prior to be used. Free access to standard lab chow for mice (Fwusow Industry Co., Limited, Taiwan) and tap water was granted. All aspects of this work including housing, experimentation and disposal of animals were performed in general accordance with the International Guiding Principles for Biomedical Research Involving Animals (CIOMS Publication No. ISBN 92 90360194, 1985).
The method of Siegmund, E. et al., Proc. Soc. Exp. Biol. Med. 95: 729-731, 1957, “A method for evaluating both non-narcotic and narcotic analgesics” was used. One hour after vehicle or compound administration, the number of writhes was recorded for each mouse in groups of 10 animals during a 5 to 10 minute period following 2 mg/kg. 1.p. of phenylquinone.
Groups of 10 male ICR mice weighing 22±2 gm were employed. Three doses (10, 30 and 100 mg/kg) of test substances suspended in a vehicle of 2% Tween 80 were administered per os. The control group received vehicle alone. […] The mean±SEM value of writhing number for each treatment group was then calculated and Dunnett's test was applied for comparison between vehicle and treated groups. Differences were considered significant when P<0.01.

[5] = system: Rats, Type II collagen assay; assay: Hargreaves test (withdrawal latency to heat) in Type II collagen assay; format: in vivo; conditions: rats Day 20 of Type II collagen assay
Method: The compound of Example 20 was further tested in a Hargreaves test, another accepted model for neuropathic pain.
Rats were tested on Day 20 in Type II collagen assay. […] Two hours after the 1st dose of drug on Day 20, animals were placed on a Hargreaves apparatus glass table. A high intensity light was placed under the one hind paw and illuminated, thus creating heat. At the same time, a clock was started. The light turned off, and the clock simultaneously stopped when the animal removed the paw. The time the rat is able to withstand the hear is considered withdrawal latency.

## CC(=O)Oc1c(C(C)(C)C)cc(/C=[N+](\[O-])C(C)(C)C)cc1C(C)(C)C [Example 1, α-(4-Acetoxy-3,5-di-tert-butylphenyl)-N-tert-butylnitrone]
[1]; Mus musculus
  inhibition at 30 mg/kg: 65%
[1]; Mus musculus, dose response, oral, mice
  ED50: 2.7 mg/kg

## CCC(=O)Oc1c(C(C)(C)C)cc(/C=[N+](\[O-])C(C)(C)C)cc1C(C)(C)C [Example 8, α-(4-propionyloxy-3,5-di-tert-butylphenyl)-N-tert-butylnitrone]
other
  melting point: 202 to 222 °C

## CC(=O)Oc1c(C(C)(C)C)cc(/C=[N+](/C)[O-])cc1C(C)(C)C [Example 9, α-(4-acetoxy-3,5-di-tert-butylphenyl)-N-methylnitrone]
other
  melting point: 136 to 143 °C

## COCOc1c(C(C)(C)C)cc(/C=[N+](\[O-])C(C)(C)C)cc1C(C)(C)C [Example 16, α-(4-Methoxymethoxy-3,5-di-tert-butylphenyl)-N-tert-butylnitrone]
[2]; 100 mg/kg, p.o., tested 1-2 hrs post-dose, FIG. 3
  effectiveness in cold stimulus latency, Bennett CCI model: effective
[3]; 100 mg/kg orally, sixty minutes prior to testing
  effect on hot-plate latency compared with pre-dose: did not significantly affect
[3]; 100 mg/kg orally, sixty minutes prior to testing, pre-dose 7.9±1.0 seconds
  hot-plate latency, post-dose (mean±SEM): 9.7 ± 1.0 s
[4]
  analgesia relative to vehicle control group (PQ writhing): significant
[4]; Dose 30 mg/kg
  # Writhes (X + SEM): 3.9 ± 1.3**
[4]; Dose 10 ml/kg as printed
  # Writhes (X + SEM): 14.9 ± 1.2**
[4]; Dose 100 ml/kg as printed
  # Writhes (X + SEM): 1.3 ± 0.6**

## CC(C)(C)c1cc(C=[N+]([O-])C(C)(C)C)cc(C(C)(C)C)c1O [Example 20, α-(4-hydroxy-3,5-di-tert-butylphenyl)-N-tert-butylnitrone]
[1]; Mus musculus
  inhibition at 30 mg/kg: 62%
[2]; 30 mg/kg p.o., 1 hr post-dose, p<0.05 vs. vehicle postdose
  postdose latency score over vehicle, cold allodynia: significant postdose latency score over vehicle
[2]; 100 mg/kg p.o., 1 hr post-dose, p<0.01 vs. vehicle postdose
  postdose latency score over vehicle, cold allodynia: significant postdose latency score over vehicle
[2]; various doses (10, 30, 100 mg/kg, p.o.), 1 hr post-dose, FIG. 4
  latency in the cold allodynia assay: increased latency
[5]; Rattus norvegicus, po, two hours after dose
  ED50: 6.25 mg/kg
[5]; doses of 10-100 mg/kg, FIG. 5
  activity in Hargreaves test (withdrawal latency): Significant activity; also recorded: does exhibit activity
[4]
  analgesia relative to vehicle control group (PQ writhing): significant
[4]; Dose 30 mg/kg
  # Writhes (X + SEM): 0.9 ± 0.5**
[4]; Dose 10 ml/kg as printed
  # Writhes (X + SEM): 3.1 ± 1.4**
[4]; Dose 100 ml/kg as printed
  # Writhes (X + SEM): 0.3 ± 0.2**

## CC(C)(C)CC(C)(C)[N+]([O-])=Cc1cc(C(C)(C)C)c(O)c(C(C)(C)C)c1 [Example 21, α-(4-hydroxy-3,5-di-tert-butylphenyl)-N-tert-octylnitrone]
[1]; Mus musculus
  inhibition at 30 mg/kg: 30%
other
  melting point: 113 to 115 °C

## CCCCCC[N+]([O-])=Cc1cc(C)c(O)c(C)c1 [Example 23, a-(4-hydroxy-3,5-dimethylphenyl)-N-hexylnitrone]
[1]
  % Inhibition of Writhing Response: 47%
[1]; mice, oral
  activity in PQ writhing model: Significant activity

## CC(C)(C)c1cc(C=[N+]([O-])C(C)(C)CO)cc(C(C)(C)C)c1O [Example 25, a-(4-hydroxy-3,5-di-tert-butylphenyl)-N-(1,1-dimethyl-2-hydroxyethyl)nitrone]
[1]
  % Inhibition of Writhing Response: 30%
[1]; mice, oral
  activity in PQ writhing model: Significant activity

## CCC(C)(C)[N+]([O-])=Cc1cc(C(C)(C)C)c(O)c(C(C)(C)C)c1 [Example 26, a-(4-hydroxy-3,5-di-tert-butylphenyl)-N-(1,1-dimethylpropyl)nitrone]
[1]
  % Inhibition of Writhing Response: 48%

## CC(C)[N+]([O-])=Cc1cc(C(C)(C)C)c(O)c(C(C)(C)C)c1 [Example 27, a-(4-hydroxy-3,5-di-tert-butylphenyl)-N-(1-methylethyl)nitrone]
[1]
  % Inhibition of Writhing Response: 30%

## CC(C)(C)c1cc(C=[N+]([O-])Cc2ccccc2)cc(C(C)(C)C)c1O [Example 28, a-(4-hydroxy-3,5-di-tert-butylphenyl)-N-benzylnitrone]
[1]
  % Inhibition of Writhing Response: 45%

## COCOc1c(C(C)(C)C)cc(C=[N+]([O-])CC2CCCCC2)cc1C(C)(C)C [Example 29, α-(4-methoxymethoxy-3,5-di-tert-butylphenyl)-N-cyclohexylmethylnitrone]
other
  melting point: 143.1 °C

## COCOc1c(C(C)(C)C)cc(/C=[N+](\[O-])Cc2ccccc2)cc1C(C)(C)C [Example 31, α-(4-methoxymethoxy-3,5-di-tert-butylphenyl)-N-benzylnitrone]
other
  melting point: 134.2 °C

## COc1c(C(C)(C)C)cc(/C=[N+](\[O-])C(C)(C)C)cc1C(C)(C)C [Example 32, α-(4-methoxy-3,5-di-tert-butylphenyl)-N-tert-butylnitrone]
[1]; Mus musculus
  inhibition at 30 mg/kg: 38%
other
  melting point: 223.1 °C

## CCOc1c(C(C)(C)C)cc(/C=[N+](\[O-])C(C)(C)C)cc1C(C)(C)C [Example 33, α-(4-ethoxy-3,5-di-tert-butylphenyl)-N-tert-butylnitrone]
[1]; Mus musculus
  inhibition at 30 mg/kg: 4%
other
  melting point: 212.1 °C

## CCOC(=O)COc1c(C(C)(C)C)cc(C=[N+]([O-])C(C)(C)C)cc1C(C)(C)C [Example 34, α-(4-carbethoxymethoxy-3,5-di-tert-butylphenyl)-N-tert-butylnitrone]
other
  melting point: 188 °C

## CN1CC[C@]23c4c5ccc(O)c4O[C@H]2[C@@H](O)C=C[C@H]3[C@H]1C5.O=S(=O)(O)O [morphine sulfate, reference compound]
[3]; 4.0 mg/kg sc, thirty minutes prior to testing
  effect on hot-plate mean latency compared with pre-dose: significantly increased
[3]; 4.0 mg/kg sc, thirty minutes prior to testing, pre-dose 9.9±1.0 seconds, P<0.001
  hot-plate mean latency to jump/hind paw licking response, post-dose (mean±SEM): 24.3 ± 2.3 s

## a-(4-hydroxy-3,5-dimethoxyphenyl)-N-tert-butylnitrone [Example 22]
[1]
  % Inhibition of Writhing Response: 32%

## a-(4-hydroxy-3,5-dimethylphenyl)-N-tert-butylnitrone [Example 24]
[1]
  % Inhibition of Writhing Response: 23%

## α-(4-Isobutanoyl-3,5-di-tert-butylphenyl)-N-tert-butylnitrone [Example 2]
[1]
  % Inhibition of Writhing Response: 29%

## α-(4-n-Butanoyl-3,5-di-tert-butylphenyl)-N-tert-butylnitrone [Example 3]
[1]
  % Inhibition of Writhing Response: 62%
